From patent US20230041211A1, “DECREASING TOXICITY OF TERPENES AND INCREASING THE PRODUCTION POTENTIAL IN MICRO-ORGANISMS” (BASF SE, priority 2019, published 2023)
≈ marks a conversion by molar mass, not a printed value. Where two headings read alike, the source gives them in different places.

Assays:
[1] = test system: adapted E. coli strains (Isolate A to C, Mut T6 A); assay type: cell-based, Escherichia coli; details: Isobutanol 65 mM, Prenol 40 mM, Butanol 7.5 g/L, Vanillin 1 g/L; Geraniol concentration not given
Protocol: To investigate the mode of action of the tolerance trait, chemicals with similar properties were tested.
To assess the limitations of the tolerance mechanism, tolerance against three additional chemicals was tested.
(§1) On the next day 25 mL of medium in 250 mL baffled flasks with Teflon® liner screw cabs were inoculated to an OD of 0.2 and incubated at 200 rpm. The terpenoid stress was added to the specified concentration. Before the cell-culture reached stationary phase, part of the culture was transferred to fresh medium in a fresh flask with the terpenoid. The mean culture growth rate was determined by comparing the initial OD and the culture OD before passaging.
(§2) Growth rates were determined by transforming the OD-values of each experiment with the natural logarithm. In the linear regime of growth a line was fit to the data and the slope was determined, which is equal to the growth rate. Growth rates were determined for each flask individually and the growth rate of each condition is given as the mean and standard deviation of three biological replicates.

E. coli MG1655 wild-type [2] = test: Toxicity assay: growth rate of wild-type E. coli in M9 medium with the chemical in sealed baffled flasks; assay type: cell-based, Escherichia coli
Protocol: The tolerance against Isoprenol was confirmed with the established toxicity assay of growth in M9 medium with Isoprenol in baffled sealed 250 mL flasks. To investigate the mode of action of the tolerance trait, chemicals with similar properties were tested.
as §1, §2
A linear interpolation of the two data-points adjacent to the half-maximal growth rate (MIC50) was used to estimate the compound concentration of half-maximal growth rate. If the corresponding standard-deviations of the growth rates were available the standard error of the MIC50 was computed by error propagation.

[3] = cited from earlier work; for loqP: Table 3B
[4] = test system: Escherichia coli, Saccharomyces cerevisae, Pseudomonas putida and Rhodobacter sphaeroides
[5] = cited from earlier work
[6] = test system: engineered E. coli strains (ΔyghB, ΔmarC, Δrob, rob H48fs); assay type: cell-based, Escherichia coli
From the text: We began the investigation of the mutations discovered in the final phenotype by testing the knock-out strains of the most promising gene-targets from the readily available Keio collection. The Keio collection is implemented in the BW25113 background which we subsequently used as reference for tolerance testing when using strains derived from the Keio collection. Compared to MG1655 the BW25113 strain is auxotroph for arabinose and rhamnose. Since glucose is the sole carbon source in our growth-assays this should not impact the physiology of tolerance.
Knock-out strains were constructed by amplification of resistance cassette with 25 bp overlap from corresponding Keio strains (Primers 3+4, 5+6 and 7+8). The PCR products carrying a homologous 25 bp sequence and a kanamycin resistance were used to transform E. coli MG1655 using standard procedures (Baba et al., 2006). For over-expression plasmids target genes were amplified with a 25 bp homology to the pAH030 overexpression plasmid. The Plasmid was linearized using the Spel restriction site and the PCR-product containing the gene of interested was inserted using Gibson assembly (Gibson et al., 2009).
Knock out strains were prepared using DNA-fragments isolated from the corresponding Keio collection strains. Recombination was carried out using a standard RED/ET kit (Genebridges Red/ET Kit, 2019).
as §2

[7] = test system: Escherichia coli, Saccharomyces cerevisae, Pseudomonas putida and Rhodobacter sphaeroides; test: Toxicity of terpenes on unmodified organisms; details: all four organisms
E. coli MG1655 wild-type [8] = details: cited from earlier work

CC(C)=CCO [Prenol]
tolerance of adapted strains compared to wild-type [1]: only strain isolate A exhibited an increased tolerance
EC50 (E. coli MG1655 wild-type [2]; wild-type strain, read-out: concentration where growth is 50% inhibited (EC50), half maximal inhibitory concentration): 40 mM
loqP [3]: 0.91

CC(C)CO [Isobutanol]
tolerance of adapted strains compared to wild-type [1]: All strains exhibit an increased tolerance
EC50 (E. coli MG1655 wild-type [2]; Escherichia coli, MG1655, wild-type strain, read-out: concentration where growth is 50% inhibited (EC50), half maximal inhibitory concentration): 65 mM
loqP [3]: 0.8

CC(=O)CCc1ccc(O)cc1 [4-(4-Hydroxyphenyl)-2-butanone]
loqP [3]: 1.5

CC1CCC(C(C)C)C(O)C1 (centres unmarked) [Menthol]
toxicity on unmodified organisms [4]: toxic effects
loqP [3]: 3.2

COc1cc(C=O)ccc1O [Vanillin]
tolerance of adapted strains compared to wild-type [1]: significantly increased growth rate
Solubility ([5]; solubility in water, Table 3B): 10000 µg/mL (≈ 65.7 mM)
effect of marC knock-out under Vanillin stress ([6]; ΔmarC, 1.5 g/L Vanillin): no significant positive effect
increase of tolerance compared to wild-type ([6]; Δrob complemented with rob H48fs, 1.5 g/L Vanillin): 36%
increased growth rate ([6]; Δrob rob H48fs plus marC knock-out, 1.5 g/L Vanillin): 28%
increase of growth rate ([6]; Δrob, 1.5 g/L Vanillin): 8%
additional faster growth ([6]; ΔyghB complemented with yghB expression, versus ΔyghB, 1.5 g/L Vanillin): 3%
increase of growth rate ([6]; ΔyghB, 1.5 g/L Vanillin): 18%
Wild-type growth rate (E. coli MG1655 wild-type [2]; 1.5 g/L Vanillin (FIG. 10B)): 0.23 h⁻¹
EC50 (E. coli MG1655 wild-type [2]; Escherichia coli, MG1655, wild-type E. coli, own experimental set-up, read-out: experimental EC50 / half-maximal growth repression): 1000 to 1500 µg/mL
growth rate reduced to fraction of wild-type growth rate (no complete growth inhibition) (E. coli MG1655 wild-type [2]; wild-type E. coli MG1655, concentration regime tested (FIG. 10A)): ⅓

C=C(C)C1CC=C(C)C(=O)C1 (single isomer, unassigned; (-)) [(-)-Carvone]
loqP [3]: 2.71

C=C(C)[C@H]1CC=C(C)CC1 [Limonene]
loqP [3]: 4.571

CCOC(=O)CC [Ethyl Propionate]
loqP [3]: 1.21

CC(C)=CCCC(C)=CC=O [Citral]
toxicity on unmodified organisms [7]: toxic effects
loqP [3]: 2.9

CC(C)=CCC/C(C)=C/CO [Geraniol]
toxicity on unmodified organisms [7]: toxic effects
tolerance of adapted strains compared to wild-type [1]: highly elevated susceptibility
Solubility ([5]; solubility in water, Table 3B): 680 µg/mL (≈ 4.41 mM)

CC(C)=CCCC(C)=CCCC(C)=CCO [Farnesol]
Solubility ([5]; solubility in water, Table 3B): 50 µg/mL (≈ 0.225 mM)
loqP [3]: 4.16

C=C(C)CCO [Isoprenol, 3-methyl-3-buten-1-ol]
toxicity on unmodified organisms [7]: toxic effects
Solubility ([5]; Table A): 90000 µg/mL (≈ 1040 mM)
Solubility ([5]; solubility in water, Table 3B): 90000 µg/mL (≈ 1040 mM)
decrease of fitness ([6]; ΔyghB strain of the Keio collection (BW25113), Isoprenol stress): about 30%
growth of wild-type E. coli cells (E. coli MG1655 wild-type [2]; 60 to 80 mM Isoprenol concentration regime): not able to grow
loqP [3]: 0.89
logP ([3]; Table A): 0.89

Butanol
tolerance of adapted strains compared to wild-type [1]: increased tolerance
literature value for half-maximal concentration (E. coli MG1655 wild-type [8]): 7.5 g/L
increased growth rate ([6]; double knock out rob and marC with rob H48fs expression, 5 g/L Butanol): 41%
increase of tolerance (growth rate vs wild-type) ([6]; ΔmarC, 5 g/L Butanol): 32%
increase of tolerance (growth rate vs wild-type) ([6]; Δrob with leaky rob H48frameshift expression, 5 g/L Butanol): 34%
increase of tolerance (growth rate vs wild-type) ([6]; Δrob, 5 g/L Butanol): about 25%
increase of relative fitness ([6]; ΔyghB complemented with yghB plasmid, 0 μM IPTG, 5 g/L Butanol): about 11%
effect of yghB knock-out on tolerance ([6]; ΔyghB, 5 g/L Butanol): decreases tolerance
Wild-type growth rate (E. coli MG1655 wild-type [2]; 5 g/L Butanol (FIG. 9B)): 0.25 h⁻¹
experimental EC50 / half-maximal growth repression (E. coli MG1655 wild-type [2]; wild-type E. coli, own experimental set-up): ~5000 µg/mL

C=CC(C)(O)CCC=C(C)C (centres unmarked) [Linalool]
Solubility ([5]; solubility in water, Table 3B): 1500 µg/mL (≈ 9.72 mM)

COc1cc(C(=O)O)ccc1O [Vanillic Acid]
loqP [3]: 1.43

CCCC(=O)OCC [Ethyl butanoate]
loqP [3]: 1.77
